According to PubChem BioAssay AID248 (DTP/NCI, 2004):
Inconclusive results and toxic doses are left out. Rule as the data show it: active = T/C of 150% or more; inactive = T/C below 125%.

Test system: L1210 leukemia ip in BDF1 mice, survival T/C
Experiment: NCI In Vivo Anticancer Drug Screen. Data for tumor model L1210 Leukemia (intraperitoneal) in B6D2F1 (BDF1) mice
Conditions: endpoint: mean survival time, higher = longer survival
In short: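 Ratio derived from survival: compound-dosed mice over vehicle-dosed mice, all bearing a transplantable tumor.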

[1] = dose: 100.0 mg/kg/injection, schedule: Q01DX009 (ip), vehicle: saline with Tween-80
[2] = dose: 100.0 mg/kg/injection, schedule: Q04DX003 (ip), vehicle: Klucel (hydroxypropylcellulose) (HPC)
[3] = dose: 200.0 mg/kg/injection, schedule: Q04DX003 (ip), vehicle: Klucel (hydroxypropylcellulose) (HPC)
[4] = dose: 400.0 mg/kg/injection, schedule: Q04DX003 (ip), vehicle: Klucel (hydroxypropylcellulose) (HPC)
[5] = dose: 100.0 mg/kg/injection, schedule: Q01DX001 (ip), vehicle: saline
[6] = dose: 200.0 mg/kg/injection, schedule: Q01DX001 (ip), vehicle: saline
[7] = dose: 50.0 mg/kg/injection, schedule: Q01DX009 (ip), vehicle: Klucel (hydroxypropylcellulose) (HPC)
[8] = dose: 75.0 mg/kg/injection, schedule: Q04DX003 (ip), vehicle: Klucel (hydroxypropylcellulose) (HPC)
[9] = dose: 150.0 mg/kg/injection, schedule: Q04DX003 (ip), vehicle: Klucel (hydroxypropylcellulose) (HPC)
[10] = dose: 300.0 mg/kg/injection, schedule: Q04DX003 (ip), vehicle: Klucel (hydroxypropylcellulose) (HPC)
[11] = dose: 100.0 mg/kg/injection, schedule: Q04DX002 (ip), vehicle: Klucel (hydroxypropylcellulose) (HPC)
[12] = dose: 200.0 mg/kg/injection, schedule: Q04DX002 (ip), vehicle: Klucel (hydroxypropylcellulose) (HPC)
[13] = dose: 400.0 mg/kg/injection, schedule: Q04DX002 (ip), vehicle: Klucel (hydroxypropylcellulose) (HPC)
[14] = dose: 100.0 mg/kg/injection, schedule: Q01DX009 (ip), vehicle: Klucel (hydroxypropylcellulose) (HPC)
[15] = dose: 200.0 mg/kg/injection, schedule: Q01DX009 (ip), vehicle: Klucel (hydroxypropylcellulose) (HPC)
[16] = dose: 400.0 mg/kg/injection, schedule: Q01DX009 (ip), vehicle: Klucel (hydroxypropylcellulose) (HPC)
[17] = dose: 100.0 mg/kg/injection, schedule: Q01DX009 (ip), vehicle: saline
[18] = dose: 200.0 mg/kg/injection, schedule: Q01DX009 (ip), vehicle: saline
[19] = dose: 400.0 mg/kg/injection, schedule: Q01DX009 (ip), vehicle: saline

Measured: T/C

CCOC(=O)c1ccc(Cl)cc1
inactive: [1] 88 % of control | [2] 97 % of control | [3] 102 % of control | [4] 102 % of control

CC(=O)NC1CCCCC1CC1CCCCC1 (configuration not stated)
inactive: dose: 75.0 mg/kg/injection, schedule: Q01DX009 (ip), vehicle: Klucel (hydroxypropylcellulose) (HPC) 103 % of control | [2] 102 % of control | dose: 150.0 mg/kg/injection, schedule: Q01DX009 (ip), vehicle: Klucel (hydroxypropylcellulose) (HPC) 93 % of control | [3] 98 % of control | dose: 300.0 mg/kg/injection, schedule: Q01DX009 (ip), vehicle: Klucel (hydroxypropylcellulose) (HPC) 96 % of control | [4] 98 % of control

Cc1nc(NC(=O)CBr)[nH]c(=O)c1CCC(C)C
inactive: dose: 100.0 mg/kg/injection, schedule: Q04DX003 (ip), vehicle: saline with Tween-80 107 % of control | dose: 200.0 mg/kg/injection, schedule: Q04DX003 (ip), vehicle: saline with Tween-80 100 % of control | dose: 400.0 mg/kg/injection, schedule: Q04DX003 (ip), vehicle: saline with Tween-80 88 % of control

CC(C)(C)OC(=O)C(=O)C(OC(C)(C)C)C(=O)OC(C)(C)C (configuration not stated)
inactive: [5] 98 % of control | [6] 102 % of control

COC1=C(OC)C(=O)C(SCCCc2ccccc2)=CC1=O
inactive: dose: 1.56 mg/kg/injection, schedule: Q01DX009 (im), vehicle: olive oil, sesame oil, peanut oil 101 % of control | dose: 3.13 mg/kg/injection, schedule: Q01DX009 (im), vehicle: olive oil, sesame oil, peanut oil 96 % of control | dose: 6.25 mg/kg/injection, schedule: Q01DX009 (im), vehicle: olive oil, sesame oil, peanut oil 98 % of control | dose: 12.5 mg/kg/injection, schedule: Q01DX009 (im), vehicle: olive oil, sesame oil, peanut oil 101 % of control | dose: 25.0 mg/kg/injection, schedule: Q01DX009 (im), vehicle: olive oil, sesame oil, peanut oil 98 % of control

O=Ic1ccccc1
inactive: dose: 25.0 mg/kg/injection, schedule: Q01DX009 (ip), vehicle: Klucel (hydroxypropylcellulose) (HPC) 103 % of control | [7] 98 % of control | dose: 50.0 mg/kg/injection, schedule: Q04DX003 (ip), vehicle: Klucel (hydroxypropylcellulose) (HPC) 93 % of control | [2] 89 % of control

Nc1cccc(OCCOc2cccc(S(=O)(=O)F)c2)c1
inactive: [5] 95 % of control | [6] 93 % of control | dose: 400.0 mg/kg/injection, schedule: Q01DX001 (ip), vehicle: saline 90 % of control

O=C(Cc1ccccc1)Nc1cccnc1
inactive: [8] 102 % of control | dose: 100.0 mg/kg/injection, schedule: Q01DX001 (ip), vehicle: Klucel (hydroxypropylcellulose) (HPC) 97 % of control | [9] 114 % of control | dose: 200.0 mg/kg/injection, schedule: Q01DX001 (ip), vehicle: Klucel (hydroxypropylcellulose) (HPC) 103 % of control | [10] 104 % of control | dose: 400.0 mg/kg/injection, schedule: Q01DX001 (ip), vehicle: Klucel (hydroxypropylcellulose) (HPC) 92 % of control

CC(=O)CCCCc1ccccc1
inactive: [11] 88 % of control | [12] 102 % of control | [13] 88 % of control

O=C(NC(=S)Nc1ccc(Cl)cc1C(=O)c1ccccc1)c1ccc(Cl)cc1Cl
inactive: [14] 93 % of control | [15] 96 % of control | [16] 94 % of control

CCN(Cc1ccccc1)C(=S)Nc1ccccc1
inactive: [11] 96 % of control | [12] 108 % of control | [13] 101 % of control

O=C(O)C(O)COc1ccc(Cl)cc1Cl (configuration not stated)
inactive: [17] 92 % of control | dose: 100.0 mg/kg/injection, schedule: Q04DX003 (ip), vehicle: saline 93 % of control | [18] 107 % of control | [19] 102 % of control | dose: 400.0 mg/kg/injection, schedule: Q04DX003 (ip), vehicle: saline 102 % of control

O=Cc1cscc1-c1cscc1C=O
inactive: dose: 50.0 mg/kg/injection, schedule: Q01DX009 (ip), vehicle: saline with Tween-80 91 % of control | [1] 95 % of control | dose: 200.0 mg/kg/injection, schedule: Q01DX009 (ip), vehicle: saline with Tween-80 98 % of control

CCCCCCC(=O)N1C(C)CCCC1C (configuration not stated)
inactive: dose: 100.0 mg/kg/injection, schedule: Q04DX002 (ip), vehicle: saline 107 % of control | dose: 200.0 mg/kg/injection, schedule: Q04DX002 (ip), vehicle: saline 103 % of control | dose: 400.0 mg/kg/injection, schedule: Q04DX002 (ip), vehicle: saline 92 % of control

C/C(=N\Nc1nc2ccccc2s1)c1ccncc1
inactive: [7] 101 % of control | [14] 100 % of control | [15] 107 % of control | [16] 101 % of control

CC(Sc1ccc([N+](=O)[O-])cn1)C(=O)O (configuration not stated)
inactive: dose: 50.0 mg/kg/injection, schedule: Q01DX001 (ip), vehicle: carboxymethylcellulose (CMC) 107 % of control | dose: 100.0 mg/kg/injection, schedule: Q01DX001 (ip), vehicle: carboxymethylcellulose (CMC) 101 % of control | dose: 200.0 mg/kg/injection, schedule: Q01DX001 (ip), vehicle: carboxymethylcellulose (CMC) 101 % of control | dose: 400.0 mg/kg/injection, schedule: Q01DX001 (ip), vehicle: carboxymethylcellulose (CMC) 109 % of control

CCCCCCCc1cc(O)c2c3c(c(=O)oc2c1)CCC(C)C3 (configuration not stated)
inactive: [8] 93 % of control | [9] 92 % of control | [10] 93 % of control

O=C1CC(NCCO)C(=O)NN1 (configuration not stated)
inactive: [17] 101 % of control | [18] 97 % of control | [19] 100 % of control
